Assay results published in patent US20170226518A1, “COMPOSITIONS AND METHODS FOR TREATING CANCER” (Autotelic LLC, priority 2016, published 2017).

Experiments:
[1] = tested on: C8161 human melanoma cells; experiment: C8161 melanoma xenograft model: tumor growth and survival; settings: for Tumor growth suppressed relative to control group 1: day 42
Method: Sixty female athymic nude mice were intradermally inoculated with C8161 human melanoma cells and randomized into six groups of 10 mice. Three groups received monotherapy treatment with either OT-101 (trabedersen) (16 mg/kg) (Group 2) or Dacarbazine (DTIC; 1 or 10 mg/kg; Groups 3, 4). Two groups received combination therapy with OT-101/DTIC at 16/1 mg/kg or 16/10 mg/kg (Groups 5 and 6). Vehicle (0.9% saline, Groups 1, 3, and 4) and OT-101 were administered 3 times/week via subcutaneous injection. Vehicle (0.9% saline, Groups 1 and 2) and DTIC (1 or 10 mg/kg) were administered via intraperitoneal injection four times/week. All OT-101/Trabedersen treatments commenced at day 0 of the study and all DTIC treatments commenced on day 14. Mice were monitored for adverse effects, body weight and tumor size three times weekly. The tumor, lungs, liver and kidneys were excised from all mice at termination and weighed.

[2] = tested on: HUP-T3 pancreatic cancer cells; experiment: Cellular proliferation of HUP-T3 pancreatic cancer cells in vitro; type: cell-based; settings: treatment on day 1 for 5 h, measured after 7 days
Method: (§1) The aim of the study was to determine the effect of AP12009 (trabedersen) treatment in combination with 5-Fluorouracil (5-FU) on TGFβ2 secretion and on cellular proliferation of HUP-T3 pancreatic cancer cells and WiDr colon cancer cells in vitro.
(§2) 10 μM of AP12009 as monotherapy decreased cell proliferation (53% proliferation of untreated control) and TGFβ2 expression (42% of untreated control) in HUP-T3 cells.

TGFβ2 [3] = experiment: TGFβ2 secretion/expression in HUP-T3 pancreatic cancer cells; type: cell-based; settings: ca.
Method: as §1, §2

WiDr colon cancer cells = experiment: Cellular proliferation of WiDr colon cancer cells in vitro; type: cell-based; settings: treatment on day 1 for 5 h only, ca.
Source text: as §1

TGFβ2 [4] = experiment: TGFβ2 secretion/expression in WiDr colon cancer cells; type: cell-based; settings: ca.
Source text: as §1

SMILES | Tumor growth suppressed relative to control group 1 ([1]; group 3: DTIC 1 mg/kg i.p. four times/week from day 14) | Tumor growth suppressed relative to control group 1 ([1]; group 4: DTIC 10 mg/kg i.p. four times/week from day 14) | median survival ([1]; group 3: DTIC 1 mg/kg) | median survival ([1]; group 4: DTIC 10 mg/kg) | 5-FU concentrations that dose-dependently reduced cell proliferation [2] | 5-FU concentrations at which TGFβ2 was suppressed (TGFβ2 [3]) | 5-FU concentrations that concentration-dependently reduced cell proliferation (WiDr colon cancer cells) | 5-FU concentrations at which TGFβ2 was suppressed (TGFβ2 [4])
CN(C)/N=N/c1[nH]cnc1C(N)=O [DTIC, Dacarbazine] | −2% | 78% | 47 days | 60 days | – | – | – | –
O=c1[nH]cc(F)c(=O)[nH]1 [5-FU, 5-Fluorouracil, reference compound] | – | – | – | – | > 10 µM | > 75 µM | > 38 µM | > 75 µM
